These are literature values, as cited in patent publication US20220016310A1, “ANTIMICROBIAL SHAPE MEMORY POLYMERS” (THE TEXAS A&M UNIVERSITY SYSTEM, priority 2016, published 2022).

For this series, the system named is antibiotic-resistant bacteria (Enterobacter aerogenes, Escherichia coli, and Staphylococcus aureus). The note with it: bacteria obtained from hospitals.

On to `O=C(O)C=Cc1ccccc1` [cinnamic acid], for which the “Susceptibility of antibiotic-resistant bacteria” value is reported as “susceptible”.
